# Measured values from patent US7910579B2, “Benzoxazole derivatives” (Tohoku University, priority 2006, dated 2011).
# Where two headings read alike, the source gives them in different places.
# Legend:
# Amyloid β protein 1-40 = target: T1, Amyloid β protein 1-40 (Homo sapiens, UniProt P05067); test: Fluorescence Congo Red Method; type: binding; details: 1 h, compound 10 μM, amyloid β protein 5 μM
# T1 construct: Amyloid β protein 1-40 (bought from Peptide Laboratory); purchased Peptide Laboratory
# T1 sequence (P05067 672-711): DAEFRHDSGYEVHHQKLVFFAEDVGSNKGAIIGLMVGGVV
# Protocol: Next described is a screening method for the compounds of the invention. Some of the compounds of the invention could not be screened according to a Thioflavin T method, since their fluorescence wavelength overlaps with that of Thioflavin T. For such compounds, the following novel screening method was introduced. (1) Amyloid β protein 1-40 (bought from Peptide Laboratory) was dissolved in a phosphate buffer (pH 7.4) and left at 37° C. for 4 days. (2) 50 μl of Congo red dissolved in the buffer was applied to a 96-well microplate (final concentration, 0.1, 0.3, 1 μM). (3) 100 μl of amyloid β protein was added to it (final concentration 5 μM), and left as such for 30 minutes. (4) 100 μl of a test compound dissolved in the buffer was added to it (final concentration, 10 μM, and left as such for 60 minutes. (5) Using a fluorescence microplate reader (Spectra Max 190 by Molecular Device), the sample was analyzed at the optimum exciting wavelength and the test wavelength that had been previously determined. (6) The fluorescence intensity in the presence of the test compound, amyloid β protein and Congo red is represented by A; that in the presence of the test compound and Congo red is by B; that in the presence of the test compound and amyloid β protein is by C; and that in the presence of only the test compound is by D. The β structure recognition of the test compound is computed according to the following formula: β structure recognition (%) of test compound={(A−B)/(C−D)}×100. (7) It may be said that the test compound having a higher β structure recognition percentage may have higher binding specificity to amyloid β protein.
# [1] = Brain Permeability Test Through HPLC; type: in vivo; details: mice, 2 minutes after intravenous administration
# Protocol: A compound of the invention was intravenously administered to mice, and tested for its in-vivo brain permeability in the mice.
# (1) Slc:ICR mice (by Nippon SLC) (body weight, 30 to 40 g; n=3) were used.
# (2) A test compound was dissolved in a mixture of 5% Tween 80-5% ethyl alcohol-5% 1 N HCl-physiological saline water, and injected into the test mouse via its tail vein. Two minutes after the administration, the blood was collected from the test mouse under ether anesthesia via its abdominal aorta using a heparin-steeped syringe, and the brain material was collected from it.
# (3) After collected, the blood was centrifuged at 4° C. and 14,000 rpm for 10 minutes, and the supernatant was stored at −80° C. as plasma. After collected, the brain material (including the cerebellum) was stored at −80° C.
# (4) 0.3 ml of acetonitrile was added to 0.1 ml of the plasma, then vortexed, and centrifuged at 4° C. and under 10,000 G for 5 minutes. After centrifuged, 0.2 ml of the resulting supernatant was transferred into Mini-Uniprep (Whatman), then 0.2 ml of 20 mM phosphate buffer was added to it and filtered. 0.2 ml of the resulting filtrate was analyzed through HPLC (Shiseido Nanospace SI-2; pump, 3001; UV-VIS detector, 3002; column thermostat, 3004; fluorescence detector, 3013).
# (5) 2 ml of methanol was added to the brain, homogenized, and centrifuged at 4° C. and 3000 or 4000 rpm for 10 minutes. After centrifuged, 500 μl of the resulting supernatant was diluted 10-fold with 20 mM phosphate buffer. (i) 2 to 3 ml of acetonitrile, (ii) 2 to 5 ml of methanol and (iii) 4 to 6 ml of ultra-pure water were led through a cartridge for solid-phase extraction (J. T. Baker Speedisk) in that order, and the 10-fold diluted supernatant solution was led through it. Via an empty syringe, air was applied to the cartridge for solid-phase extraction, two or three times to remove water, and then this was eluted with about 500 μl of acetonitrile or methanol, and the eluate was diluted 2-fold with 20 mM phosphate buffer. 0.2 ml of the resulting solution was analyzed through HPLC.
# (6) The test compound content in the plasma and in the brain was determined relative to the dose of the compound (% ID (injected dose)/g or ml).
# [2] = target: T2, Tg mouse intracerebral amyloid plaque (Homo sapiens, UniProt P05067); test: Investigation of transgenic (Tg) mice with amyloid deposition in their brain (fluorescence microscopy of brain sections after intravenous administration); type: in vivo; details: Tg2576 mouse, 4 mg/kg intravenous; for Passage through the blood-brain barrier and binding to Tg mouse intracerebral amyloid plaque: 1 hour after administration
# T2 construct: from tissue; host or cells: brain of Tg mice (Tg2576 or APPswe2576/Tau JNPL3) after intravenous dosing
# T2 sequence (P05067 672-713 limits assumed): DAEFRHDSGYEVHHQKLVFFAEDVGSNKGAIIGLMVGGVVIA
# [3] = Congo red 0.1 μM, read-out: Binding Percentage of Compound in the presence of 0.1 μM CR
# [4] = Congo red 0.3 μM, read-out: Binding Percentage of Compound in the presence of 0.3 μM CR
# [5] = Congo red 1 μM, read-out: Binding Percentage of Compound in the presence of 1 μM CR
SMILES,activity at 10 µM (Amyloid β protein 1-40; [3]) [%],activity at 10 µM (Amyloid β protein 1-40; [4]) [%],activity at 10 µM (Amyloid β protein 1-40; [5]) [%],Brain Permeability: Brain [1],Brain Permeability: Plasma [1],Passage through the blood-brain barrier and binding to Tg mouse intracerebral amyloid plaque [2],Correspondence of the binding site to the anti-Aβ antibody-stained site of the same section ([2]; antibody 4G8)
"CNc1ncc(/C=C/c2nc3ccc(OC(CO)CF)cc3o2)s1 (stereo not drawn) [THK-761, (E)-6-[(1-fluoromethyl-2-hydroxy)ethoxy]-2-[2-[2-methylaminothiazol-5-yl]ethenyl]-benzoxazole]",55.2,21.6,7,,,,
"CN(C)c1ncc(/C=C/c2nc3ccc(OC(CO)CF)cc3o2)s1 (stereo not drawn) [THK-763, (E)-6-[(1-fluoromethyl-2-hydroxy)ethoxy]-2-[2-[2-dimethylamino-thiazol-5-yl]ethenyl]benzoxazole]",54.7,22.9,7.5,,,,
"OCC(CF)Oc1ccc2nc(/C=C/c3cnc(N4CCCC4)s3)oc2c1 (stereo not drawn) [THK-752, (E)-6-[(1-fluoromethyl-2-hydroxy)ethoxy]-2-[2-[2-(pyrrolidin-1-yl)-thiazol-5-yl]ethenyl]benzoxazole]",50.4,20.6,11.3,6.7 % ID/g or ml,1.9 % ID/g or ml,,
"FCCOc1ccc2nc(/C=C/c3cnc(N4CCOCC4)s3)oc2c1 [THK-525, 6-(2-fluoro-ethoxy)-2-[2-(2-morpholin-4-yl-thiazol-5-yl)-vinyl]-benzoxazole]",61.4,24.1,-6.4,7.9 % ID/g or ml,3.1 % ID/g or ml,"passed through the blood-brain barrier, and bound to the Tg mouse intracerebral amyloid plaque",
"OCC(CF)Oc1ccc2nc(/C=C/c3cnc(N4CCOCC4)s3)oc2c1 (stereo not drawn) [THK-702, (E)-2-[2-(2-morpholinothiazol-5-yl)ethenyl]-6-[(1-fluoromethyl-2-hydroxy)ethoxy]-benzoxazole]",74.9,37.3,0.8,5.1 % ID/g or ml,2.7 % ID/g or ml,"passed through the blood-brain barrier, and bound to the amyloid plaque of the Tg mouse",completely corresponded to the anti-Aβ antibody-stained site
